The values that follow come from patent US20060160773A1, “Combretastatin derivatives with cytotoxic action” (priority 2003, published 2006).

For data set [1], the system named is human NCI-H460 lung cancer cells. Nature of the data set: Anticancer activity in animal model of human lung carcinoma (NCI-H460 s.c. in nude CD1 mice). The format is in vivo. The protocol: The anticancer activity of ST2495 and ST2496 was assayed in an animal model of human lung carcinoma.
In this model, human NCI-H460 lung cancer cells at a density of 3×10^6 cells/mouse were injected subcutaneously in the right flank of nude CD1 mice. […]
All the animals were weighed during the course of the treatment to adjust the drug administration volume and to record the percentage loss of body weight (% BWL).
Tumour growth was assessed by measuring the shorter diameter (width) and the longer diameter (length) of each tumour twice a week with a Vernier caliper, and the anticancer activity was evaluated in terms of percentage inhibition of tumour growth. The tumour volume was calculated using the following formula: tumour volume (TV) in mm^3=[length (mm)×width (mm)^2]/2. The percentage inhibition (% TVI) was calculated according to the following equation: 100−[(mean tumour volume of the treated group/mean tumour volume of the control group)×100]. A value of P≦0.05 was regarded as statistically significant.

A short description of data set [2]: Evaluation of cardiovascular parameters (blood pressure, heart rate) in anaesthetised rats. The format is in vivo. Particulars: 20 or 40 mg/kg injected in the jugular vein, anaesthetised Wistar rats (FIG. 1). The procedure:
Combretastatin A4, its prodrug ST2494 and our water soluble selected compounds ST2495 and ST2496, diluted at the doses of 20 or 40 mg/kg in saline solution or for combretastatin A4 in 5% DMSO, were injected in the jugular vein of Wistar rats anaesthetised with 55 mg/kg Nembutal. The parameter considered were blood pressure and heart rate.

For data set [3], the system named is MES-SA human uterine sarcoma. As to the kind of experiment: Cytotoxicity test (sulforodamine B), MES-SA. The format is cell-based. Particulars: read-out: IC50 ± SE. The protocol: (§1) The cytotoxic effect of our derivatives was evaluated in series of human and murine cell lines.
(§2) The following cell lines, purchased from ATCC, were cultured according to the manufacturer's instructions: MeWo human melanoma, NCI-H460 human lung cancer, LoVo human colon adenocarcinoma, PC3 human prostate carcinoma, MES-SA human uterine sarcoma, HCT 116 human colorectal carcinoma, MCF-7 human breast carcinoma.
(§3) For the cytotoxicity test the cells were seeded at variable densities according to cell type in 96-well plates in normal culture medium (200 μl/well) and incubated for 24 hours at 37° C. On the next day, the study substances were added at scalar concentrations and the cells were incubated for a further 24 hours at 37° C. in a humidified atmosphere containing 5% CO2. At the end of the incubation period the medium containing the substances was removed and three washings with PBS were performed. At the end of the washings 200 μl/well of fresh medium were added and the plates were incubated at 37° C. for a further 48 hours. At the end of this incubation period the culture medium was removed by overturning the plates and 200 μl/well of PBS and 50 μl of 80% cold trichloroacetic acid (TCA) were added. The plates were then incubated in ice. After 1 h the TCA was removed, the plates were washed three times by immersion in distilled water and dried first on blotting paper and then in the oven. 200 μl of 0.4% sulforodamine B in 1% acetic acid were then added to all wells. The plates were incubated at room temperature for a further 30 minutes. The sulforodamine B was removed by overturning, the plates were washed three times by immersion in 1% acetic acid, and then dried first on blotting paper and then in the oven. 200 μl of Tris base 10 mM were then added to all wells and the plates were placed under stirring for at least 20 min. The optical density was measured by spectrophotometric readout at 540 nm.
(§4) In the same table are reported the IC50 of ST2897, ST2898 and ST2899 on BMEC.

The subject of data set [4] is HCT 116 human colorectal carcinoma. As to the kind of experiment: Cytotoxicity test (sulforodamine B), HCT 116. Type of data set: cell-based. The protocol:
as §1, §2, §3, §4

Data set [5] has as its system Bovine microcirculatory endothelial cells (BMEC). As to the kind of experiment: Cytotoxicity test (sulforodamine B), BMEC. Type of data set: cell-based. The note with it: read-out: IC50 ± SE. The protocol: as §1
Bovine microcirculatory endothelial cells (BMEC), isolated from bovine adrenal glands, were maintained in culture in DMEM containing 20% FBS, 50 μg/ml of bovine brain extract (BBE), 50 units/ml of heparin (SIGMA), 100 units/ml of gentami-cin (SIGMA) and 10 mg/ml of L-glutamine (Hyclone). EA-hy926, an immortalised hybridoma of HUVEC and adenocarcinoma cells, obtained from the University of Bari Department of Biomedical Sciences and Human Oncology, was cultured in DMEM added with 10% FBS and gentamicin.
as §3, §4

Data set [6] relates to B16/BL6 murine melanoma line. As to the kind of experiment: Cytotoxicity test (sulforodamine B), B16/BL6. Type of data set: cell-based. The protocol:
as §1
The B16/BL6 murine melanoma line, obtained from the M. Negri Institute in Milan, was cultured in DMEM containing 10% FBS and antibiotics.
as §3, §4

Data set [7] concerns HT29 human colon adenocarcinoma line. As to the kind of experiment: Cytotoxicity test (sulforodamine B), HT29. Type of data set: cell-based. The procedure: as §1
(§5) The M109 murine lung cancer line, the HT29 human colon adenocarcinoma line, the A2780 human ovarian carcinoma line, obtained from the Milan Tumour Institute, were cultured in RPMI containing 10% FBS and antibiotics.
as §3, §4

The test system of data set [8] is A2780 human ovarian carcinoma line. As to the kind of experiment: Cytotoxicity test (sulforodamine B), A2780. Type of data set: cell-based. The protocol:
as §1, §5, §3, §4

The test system of data set [9] is NCI-H460 human lung cancer. Nature of the data set: Cytotoxicity test (sulforodamine B), NCI-H460. Type of data set: cell-based. The procedure:
as §1, §2, §3, §4

Data set [10] relates to Human umbilical vein endothelial cells (HUVEC). As to the kind of experiment: Cytotoxicity test (sulforodamine B), HUVEC. Type of data set: cell-based. Particulars: read-out: IC50 ± SE. The protocol: as §1
Human umbilical vein endothelial cells (HUVEC), from the BioWhittaker company, were maintained in EGM-2 culture medium (BioWhittaker).
as §3, §4

Data set [11] deals with MCF-7 human breast carcinoma. As to the kind of experiment: Cytotoxicity test (sulforodamine B), MCF-7. Type of data set: cell-based. The procedure:
as §1, §2, §3, §4

A further data set concerns MeWo human melanoma. As to the kind of experiment: Cytotoxicity test (sulforodamine B), MeWo. The format is cell-based. The note with it: read-out: IC50 ± SE. The protocol: as §1, §2, §3, §4
Setting [12] is: i.v. 60 mg/kg, q2dx6, day 5 to day 17.
[13] abbreviates: i.v. 90 mg/kg, q2dx6, day 5 to day 17.
Where [14] appears, read: p.o. 30 mg/kg, qdx5/w, day 4 to day 14.
Setting [15] is: i.p. 30 mg/kg twice/day, qd5x/w, day 4 to day 22.
Where [16] appears, read: i.p. 30 mg/kg, qd5x/w once a day, day 4 to day 22.
[17] abbreviates: i.v. 60 mg/kg, q2dx6, day 4 to day 16.
Setting [18] is: i.v. 90 mg/kg, q2dx6, day 4 to day 16.
[19] abbreviates: p.o. 30 mg/kg twice/day, qd5x/w, day 4 to day 22.
[20] abbreviates: p.o. 60 mg/kg twice/day, qd5x/w, day 4 to day 22.
[21] abbreviates: 24 h exposure, 48 h recovery, SRB.

Like-named read-outs stand apart in the source and are kept apart here. Marks after values point to notes of the source that are not given here.

As for `COc1cc(/C=C\c2cc(OP(=O)(O)O)c3ccoc3c2)cc(OC)c1OC` [ST2496, Disodium 6[(Z)-2-(3,4,5-trimethoxyphenyl)ethenyl]-1-benzo-furan-4-ol 4-O-phosphate], the “% BWL” value in data set [1] (setting [12]), in data set [1] (setting [13]) and in [1] (setting [14]) was 1% each time. In addition, the Mortality in data set [1] (setting [12]), in [1] (setting [13]) and in data set [1] (setting [14]) was 0/8 in each case. Besides, the “% TVI” value in data set [1] (i.v. 60 mg/kg, q2dx6 day 5 to 17, day 14 after tumor inoculation) is 48** %; in [1] (i.v. 60 mg/kg, q2dx6 day 5 to 17, day 21 after tumor inoculation) it was 53** %; in data set [1] (i.v. 90 mg/kg, q2dx6 day 5 to 17, day 14 after tumor inoculation), 57*** %; in [1] (i.v. 90 mg/kg, q2dx6 day 5 to 17, day 21 after tumor inoculation), 56** %; in [1] (p.o. 30 mg/kg, qdx5/w day 4 to 14, day 14 after tumor inoculation), 48* %; in data set [1] (p.o. 30 mg/kg, qdx5/w day 4 to 14, day 21 after tumor inoculation) it was 46* %. Also, in data set [2], the blood pressure entry is “did not show significant effect”. Moreover, the heart rate result in data set [2] is on record as “did not show significant effect”. Further, the IC50 in data set [3] (Homo sapiens, MES-SA) is 500 ± 50 nM; in data set [4] (Homo sapiens, HCT-116, read-out: IC50 ± SE), 1680 ± 70 nM; in [5] (Bos taurus, Endothelial cell), 340 ± 16 nM; in data set [6] (Mus musculus, B16-BL6, read-out: IC50 ± SE), 4.14 ± 0.49 µM; in [7] (Homo sapiens, HT-29, read-out: IC50 ± SE), 3.9 ± 0.07 µM; in data set [8] (Homo sapiens, A2780, read-out: IC50 ± SE), 260 ± 6 nM. Further, the IC50 in [9] (Homo sapiens, NCI-H460, read-out: IC50 ± SE) turned out to be 780 ± 3.4 nM; in data set [10] (Homo sapiens), 85 ± 1.2 nM; in data set [11] (Homo sapiens, MCF7, read-out: IC50 ± SE) it was 646 ± 29 nM; in the data set on MeWo human melanoma (Homo sapiens), 820 ± 7.7 nM.
As for `COc1ccc(/C=C\c2cc(OC)c3occc3c2)cc1O` [ST2898, Cis-2-Methoxy-5-[2-(7-methoxy-benzofuran-5-yl)-vinyl]-phenol], in [5] (Bos taurus, Endothelial cell), the IC50 was 35 ± 0.3 nM.
The same measure, in the same setting: as for `COc1ccc(/C=C\c2cc(OC)c3ccoc3c2)cc1O` [ST2897, Cis-2-Methoxy-5-[2-(4-methoxy-benzofuran-6-yl)-vinyl]-phenol], the figure is 35 ± 1.8 nM; as for `COc1ccc(/C=C\c2cc(OC)c3ccsc3c2)cc1O` [ST2899, Cis-2-Methoxy-5-[2-(4-methoxy-benzo[b]thiophen-6-yl)-vinyl]-phenol], < 40 nM.
In the case of “Disodium 6[(Z)-2-(3,4,5-trimethoxyphenyl)ethenyl]-1-benzo-thiophen-4-ol-4-O-phospohate [ST2495]”, in data set [1] (NCI-H460 in nude mice, i.p., p.o. and i.v. routes), the “anticancer activity (summary in words)” value is “proved active with all the administration routes”. The “% BWL” value in [1] (setting [15]) was 0%; in [1] (setting [16]) it was 4%; in [1] (setting [17]), 1%; in [1] (setting [18]), 0%; in data set [1] (setting [19]), 0%; in [1] (setting [20]), 1%. Moreover, the Mortality in [1] (setting [15]), in [1] (setting [16]), in data set [1] (setting [17]), in [1] (setting [18]), in data set [1] (setting [19]) and in data set [1] (setting [20]) was 0/8 throughout. The “% TVI” value in data set [1] (i.p. 30 mg/kg twice/day, qd5x/w, day 15 after tumor inoculation) was 75** %; in data set [1] (i.p. 30 mg/kg twice/day, qd5x/w, day 22 after tumor inoculation) it was 72** %; in data set [1] (i.p. 30 mg/kg, qd5x/w once a day, day 15 after tumor inoculation), 32** %; in data set [1] (i.p. 30 mg/kg, qd5x/w once a day, day 22 after tumor inoculation), 38* %; in data set [1] (i.v. 60 mg/kg, q2dx6 day 4 to 16, day 15 after tumor inoculation) it was 84** %; in [1] (i.v. 60 mg/kg, q2dx6 day 4 to 16, day 22 after tumor inoculation), 73** %. In addition, the “% TVI” value in [1] (i.v. 90 mg/kg, q2dx6 day 4 to 16, day 15 after tumor inoculation) is 81** %; in data set [1] (i.v. 90 mg/kg, q2dx6 day 4 to 16, day 22 after tumor inoculation) it was 62** %; in [1] (p.o. 30 mg/kg twice/day, qd5x/w, day 15 after tumor inoculation), 42** %; in data set [1] (p.o. 30 mg/kg twice/day, qd5x/w, day 22 after tumor inoculation) it was 30* %; in data set [1] (p.o. 60 mg/kg twice/day, qd5x/w, day 15 after tumor inoculation) it was 79** %; in data set [1] (p.o. 60 mg/kg twice/day, qd5x/w, day 22 after tumor inoculation) it was 67** %. Also, the IC50 in [3] (MESSA, 24 h exposure, 48 h recovery, SRB) is 1420 ± 49 nM; in [4] (HCT-116, 24 h exposure, 48 h recovery, SRB, read-out: IC50 ± SE), 3000 ± 102 nM; in data set [5] (BMEC, 24 h exposure, 48 h recovery, SRB), 640 ± 40 nM; in data set [6] (B16/BL6, 24 h exposure, 48 h recovery, SRB, read-out: IC50 ± SE) it was > 10 µM; in [7] (HT29, 24 h exposure, 48 h recovery, SRB, read-out: IC50 ± SE) it was > 10 µM; in data set [8] (A2780, 24 h exposure, 48 h recovery, SRB, read-out: IC50 ± SE) it was 500 ± 20 nM. Further, the IC50 in data set [9] (NCI-H460, 24 h exposure, 48 h recovery, SRB, read-out: IC50 ± SE) was found to be 620 ± 65 nM; in data set [10] (setting [21]), 83 ± 2.06 nM; in [11] (MCF-7, 24 h exposure, 48 h recovery, SRB, read-out: IC50 ± SE), 693 ± 21 nM; with MeWo human melanoma (setting [21]), 830 ± 0.13 nM.
